For the experiment, the target named is human Factor XIa (Homo sapiens (Human), UniProt P03951). The experiment can be described thus: Factor XIa Assay. To be noted: for IC50: human Factor XIa 0.04 nM, 30 min pre-incubation at 25° C., substrate GPR-AFC, read-out: FXIa IC50; for inhibition at 1 µM: @ 1000 nM compound, read-out: FXIa % Inh. @ 1000 nM. The experiment is classed as biochemical. As for the experimental part: The effectiveness of a compound of the present invention as an inhibitor of Coagulation Factor XIa can be determined using a relevant purified serine protease, and an appropriate synthetic substrate. The rate of hydrolysis of the chromogenic or fluorogenic substrate by the relevant serine protease was measured both in the absence and presence of compounds of the present invention. Assays were conducted at room temperature or at 37° C. […] A decrease in the rate of fluorescence change in the presence of inhibitor is indicative of enzyme inhibition. Such methods are known to one skilled in the art. The results of this assay are expressed as the half-maximal inhibitory concentrations (IC50), or the inhibitory constant, Ki.
Compounds were pre-incubated for 30 minutes at 25° C. with human (0.04 nM) Factor XIa in 50 mM HEPES buffer with 150 mM sodium chloride, 5 mM calcium chloride, 0.1% PEG 8000, pH 7.4. Factor XIa enzymatic activity was determined by addition of the substrate glycine-proline-arginine-7-amido-4-trifluoromethylcoumarin (GPR-AFC) and measurement of the fluorescence at 400/505 nm after a 60 minute incubation at 25° C. The % inhibition for each data point was calculated from the data and analyzed using the log (inhibitor) vs. response four parameters equation to determine the half-maximal inhibitory concentrations (IC50). The IC50 were converted to equilibrium inhibitory constants (Ki) using the Cheng-Prusoff equation.

The values that follow come from US10143681B2, “Factor XIa inhibitors” (MERCK SHARP & DOHME CORP., priority 2016, dated 2018).

human Factor XIa, sequence (P03951 388-625): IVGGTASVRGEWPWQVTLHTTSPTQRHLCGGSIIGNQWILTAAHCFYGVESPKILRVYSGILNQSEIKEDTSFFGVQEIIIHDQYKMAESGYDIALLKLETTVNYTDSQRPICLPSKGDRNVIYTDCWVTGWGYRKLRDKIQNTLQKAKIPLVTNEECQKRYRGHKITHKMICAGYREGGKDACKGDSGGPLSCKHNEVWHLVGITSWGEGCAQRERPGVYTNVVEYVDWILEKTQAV
human Factor XIa, sequence (P03951 19-387 partner): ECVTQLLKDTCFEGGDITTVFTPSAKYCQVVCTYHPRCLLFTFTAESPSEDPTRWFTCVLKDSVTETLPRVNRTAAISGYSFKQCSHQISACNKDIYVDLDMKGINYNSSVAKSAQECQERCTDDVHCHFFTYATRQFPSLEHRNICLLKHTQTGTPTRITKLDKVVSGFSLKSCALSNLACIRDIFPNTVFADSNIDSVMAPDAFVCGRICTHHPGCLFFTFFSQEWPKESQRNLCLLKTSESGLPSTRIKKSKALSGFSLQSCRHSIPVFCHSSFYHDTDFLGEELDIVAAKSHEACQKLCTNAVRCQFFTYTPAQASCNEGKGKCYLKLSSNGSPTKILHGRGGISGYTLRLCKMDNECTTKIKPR

For `O=C(O)c1ccc(NC(=O)[C@@H](CC2CC2)c2ccc(-c3c(C(F)F)ccc(Cl)c3F)c[n+]2[O-])cc1` (mixture of isomers) [Example 22, (S)- and (R)-2-(1-((4-carboxyphenyl)amino)-3-cyclopropyl-1-oxopropan-2-yl)-5-(3-chloro-6-(difluoromethyl)-2-fluorophenyl)pyridine 1-oxide], the IC50 – broadly, the concentration that inhibits the measured activity by half – was 240 nM.
As for `O=C(O)c1ccc(NC(=O)C(CC2CC(F)(F)C2)c2ccc(-c3c(OC(F)F)ccc(Cl)c3F)c[n+]2[O-])cc1` (racemic) [Example 49, (S)- and (R)-2-(1-((4-carboxyphenyl)amino)-3-(3,3-difluorocyclobutyl)-1-oxopropan-2-yl)-5-(3-chloro-6-(difluoromethoxy)-2-fluorophenyl)pyridine 1-oxide], the inhibition at 1 µM stood at 47%.
On the same count and under the same terms, to `O=C(O)c1ccc(NC(=O)[C@H](CC2CC2)c2ccc(-c3c(OC(F)F)ccc(Cl)c3F)c[n+]2[O-])cc1` (single isomer, unassigned) [Example 1] belongs 47%.
Consider `COc1ccc(Cl)c(F)c1-c1ccc(C(CC2CC2)C(=O)Nc2ccc(C(=O)O)cc2)[n+]([O-])c1` (single isomer, unassigned) [Example 10, (S)- or (R)-4-({2-[5-(3-chloro-2-fluoro-6-methoxyphenyl)-1-oxidopyridin-2-yl]-3-cyclopropylpropanoyl}amino) benzoic acid], for which the inhibition at 1 µM is 13% and the IC50 is over 1000 nM.
With `COc1ccc(Cl)c(F)c1-c1ccc(C(CC2CC2)C(=O)Nc2ccc(C(=O)O)cc2)[n+]([O-])c1` (single isomer, unassigned) [Example 11, (R)- or (S)-4-({2-[5-(3-chloro-2-fluoro-6-methoxyphenyl)-1-oxidopyridin-2-yl]-3-cyclopropylpropanoyl}amino) benzoic acid], the IC50 came to 36 nM.
The same measure, in the same setting: for `O=C(O)c1ccc(NC(=O)C(CC2CCC2)c2ccc(-c3c(OC(F)F)ccc(Cl)c3F)c[n+]2[O-])cc1` (single isomer, unassigned) [Example 14, (S)- or (R)-4-[(2-{5-[3-chloro-6-(difluoromethoxy)-2-fluorophenyl]-1-oxidopyridin-2-yl}-3-cyclobutylpropanoyl)amino] benzoic acid] the value was 47 nM.
On to `COC(=O)c1ccc(NC(=O)C(CC2CCC2)c2ccc(-c3c(C(F)F)ccc(Cl)c3F)c[n+]2[O-])cc1` (single isomer, unassigned) [Example 20, (S)- or (R)-methyl 4-[(2-{5-[3-chloro-6-(difluoromethyl)-2-fluorophenyl]-1-oxidopyridin-2-yl}-3-cyclobutylpropanoyl)amino]benzoate], for which the inhibition at 1 µM stood at 13% and the concentration for half-maximal inhibition (IC50) was over 1000 nM.
Take `COC(=O)c1ccc(NC(=O)C(CC2CCC2)c2ccc(-c3c(C(F)F)ccc(Cl)c3F)c[n+]2[O-])cc1` (single isomer, unassigned) [Example 21, (R)- or (S)-methyl 4-[(2-{5-[3-chloro-6-(difluoromethyl)-2-fluorophenyl]-1-oxidopyridin-2-yl}-3-cyclobutylpropanoyl)amino]benzoate]: the IC50 came to 83 nM.
In the case of `O=C(O)c1ccc(NC(=O)C(CC2CC2)c2ccc(-c3cc(Cl)ccc3C(F)(F)F)c[n+]2[O-])cc1` (single isomer, unassigned) [Example 24, (S)- or (R)-2-(1-((4-carboxyphenyl)amino)-3-cyclopropyl-1-oxopropan-2-yl)-5-(5-chloro-2-(trifluoromethyl)phenyl)pyridine 1-oxide], the inhibition at 1 µM worked out at 33% and the IC50 is over 1000 nM.
In the same order, the values of `O=C(O)c1ccc(NC(=O)C(CC2CC2)c2ccc(-c3c(C(F)(F)F)ccc(Cl)c3F)c[n+]2[O-])cc1` (single isomer, unassigned) [Example 26, (S)- or (R)-2-(1-((4-carboxyphenyl)amino)-3-cyclopropyl-1-oxopropan-2-yl)-5-(3-chloro-2-fluoro-6-(trifluoromethyl)phenyl)pyridine 1-oxide] are 39% and over 1000 nM.
For `O=C(O)c1ccc(NC(=O)C(C[C@H]2CC[C@H](O)CC2)c2ccc(-c3c(C(F)F)ccc(Cl)c3F)c[n+]2[O-])cc1` (single isomer, unassigned) [Example 36, (S)- or (R)-2-(1-((4-carboxyphenyl)amino)-3-((1r,4r)-4-hydroxycyclohexyl)-1-oxopropan-2-yl)-5-(3-chloro-6-(difluoromethyl)-2-fluorophenyl)pyridine 1-oxide], the IC50 was 26 nM.
As for `C[C@]1(O)CC[C@@H](CC(C(=O)Nc2ccc(C(=O)O)cc2)c2ccc(-c3c(OC(F)F)ccc(Cl)c3F)c[n+]2[O-])CC1` (single isomer, unassigned) [Example 41, 2-(1-((4-carboxyphenyl)amino)-3-((1s,4s)-4-hydroxy-4-methylcyclohexyl)-1-oxopropan-2-yl)-5-(3-chloro-6-(difluoromethoxy)-2-fluorophenyl)pyridine 1-oxide], the inhibition at 1 µM is 49% and the concentration for half-maximal inhibition (IC50) was over 1000 nM.
Turning to `C[C@]1(O)CC[C@H](CC(C(=O)Nc2ccc(C(=O)O)cc2)c2ccc(-c3c(OC(F)F)ccc(Cl)c3F)c[n+]2[O-])CC1` (single isomer, unassigned) [Example 42, 2-(1-((4-carboxyphenyl)amino)-3-((1r,4r)-4-hydroxy-4-methylcyclohexyl)-1-oxopropan-2-yl)-5-(3-chloro-6-(difluoromethoxy)-2-fluorophenyl)pyridine 1-oxide], the half-maximal inhibitory concentration (IC50) is 227 nM.
On the same count and under the same terms, to `C[C@]1(O)CC[C@@H](CC(C(=O)Nc2ccc(C(=O)O)cc2)c2ccc(-c3c(C(F)F)ccc(Cl)c3F)c[n+]2[O-])CC1` (single isomer, unassigned) [Example 44, 2-(1-((4-carboxyphenyl)amino)-3-((1s,4s)-4-hydroxy-4-methylcyclohexyl)-1-oxopropan-2-yl)-5-(3-chloro-6-(difluoromethyl)-2-fluorophenyl)pyridine 1-oxide] belongs 299 nM; to `C[C@]1(O)CC[C@H](CC(C(=O)Nc2ccc(C(=O)O)cc2)c2ccc(-c3c(C(F)F)ccc(Cl)c3F)c[n+]2[O-])CC1` (single isomer, unassigned) [Example 46, 2-(1-((4-carboxyphenyl)amino)-3-((1r,4r)-4-hydroxy-4-methylcyclohexyl)-1-oxopropan-2-yl)-5-(3-chloro-6-(difluoromethyl)-2-fluorophenyl)pyridine 1-oxide], 128 nM.
On the same count and under the same terms, for `CC1CC1C[C@H](C(=O)Nc1ccc(C(=O)O)cc1)c1ccc(-c2c(OC(F)F)ccc(Cl)c2F)c[n+]1[O-]` (single isomer, unassigned) [Example 53] the value was 155 nM; for `CC1CC1C[C@H](C(=O)Nc1ccc(C(=O)O)cc1)c1ccc(-c2c(OC(F)F)ccc(Cl)c2F)c[n+]1[O-]` (single isomer, unassigned) [Example 54], 370 nM.
Turning to `CC(C1CC1)C(C(=O)Nc1ccc(C(=O)O)cc1)c1ccc(-c2c(OC(F)F)ccc(Cl)c2F)c[n+]1[O-]` (single isomer, unassigned) [Example 57, 2-(1-((4-carboxyphenyl)amino)-3-cyclopropyl-1-oxobutan-2-yl)-5-(3-chloro-6-(difluoromethoxy)-2-fluorophenyl)pyridine 1-oxide], the inhibition at 1 µM was 48% and the IC50 is over 1000 nM.
Consider `CC(C1CC1)C(C(=O)Nc1ccc(C(=O)O)cc1)c1ccc(-c2c(OC(F)F)ccc(Cl)c2F)c[n+]1[O-]` (single isomer, unassigned) [Example 58, 2-(1-((4-carboxyphenyl)amino)-3-cyclopropyl-1-oxobutan-2-yl)-5-(3-chloro-6-(difluoromethoxy)-2-fluorophenyl)pyridine 1-oxide], for which the IC50 stood at 334 nM.
On the same count and under the same terms, for `CC(C1CC1)C(C(=O)Nc1ccc(C(=O)O)cc1)c1ccc(-c2c(OC(F)F)ccc(Cl)c2F)c[n+]1[O-]` (single isomer, unassigned) [Example 59, 2-(1-((4-carboxyphenyl)amino)-3-cyclopropyl-1-oxobutan-2-yl)-5-(3-chloro-6-(difluoromethoxy)-2-fluorophenyl)pyridine 1-oxide] the value was 286 nM; for `CC(C1CC1)C(C(=O)Nc1ccc(C(=O)O)cc1)c1ccc(-c2c(OC(F)F)ccc(Cl)c2F)c[n+]1[O-]` (single isomer, unassigned) [Example 60, 2-(1-((4-carboxyphenyl)amino)-3-cyclopropyl-1-oxobutan-2-yl)-5-(3-chloro-6-(difluoromethoxy)-2-fluorophenyl)pyridine 1-oxide], 62 nM; for `CC1CC1C[C@H](C(=O)Nc1ccc(C(=O)O)cc1)c1ccc(-c2c(C(F)F)ccc(Cl)c2F)c[n+]1[O-]` (single isomer, unassigned) [Example 61], 55 nM.
Still for that read-out and setting: to `O=C(O)c1ccc(NC(=O)C(CC2CC(F)C2)c2ccc(-c3c(C(F)F)ccc(Cl)c3F)c[n+]2[O-])cc1` (single isomer, unassigned) [Example 80, 2-(1-((4-carboxyphenyl)amino)-3-(3-fluorocyclobutyl)-1-oxopropan-2-yl)-5-(3-chloro-6-(difluoromethyl)-2-fluorophenyl)pyridine 1-oxide] belongs 484 nM.
